Data from ChEMBL document CHEMBL3046544, “Inhibitory Activity of N-Substituted-2-piperidones with a 1, 4-Benzodioxan Ring on Germination of Barnyardgrass” (J Pestic Sci, 2001).

Legend:
Type in all cases: functional
Conditions in all cases: 120 h
Echinochloa esculenta [1] = test: Herbicidal activity against Echinochloa esculenta assessed as inhibition of seed germination at 1 nM after 5 days relative to control
Echinochloa esculenta [2] = test: Herbicidal activity against Echinochloa esculenta assessed as inhibition of seed germination at 100 nM after 5 days relative to control
Echinochloa esculenta [3] = test: Herbicidal activity against Echinochloa esculenta assessed as inhibition of seed germination at 1000 nM after 5 days relative to control
Echinochloa esculenta [4] = test: Herbicidal activity against Echinochloa esculenta assessed as inhibition of seed germination at 10 nM after 5 days relative to control

Structure (SMILES)	inhibition at 0.001 µM (Echinochloa esculenta [1]) [%]	inhibition at 0.1 µM (Echinochloa esculenta [2]) [%]	inhibition at 1 µM (Echinochloa esculenta [3]) [%]	inhibition at 0.01 µM (Echinochloa esculenta [4]) [%]
CCCCCCC(O)C1CCCN(Cc2ccccc2)C1=O (centres undefined)	< 49	50	> 90	< 49
O=C1C(C(O)c2cccc(C(F)(F)F)c2)CCCN1Cc1ccccc1 (centres undefined)	< 49	50	50	< 49
O=C1C(C(O)c2ccc3c(c2)OCCO3)CCN1C/C=C/c1ccccc1 (mixture of isomers)	< 49	< 49	> 90	< 49
O=C1C(C(O)c2ccc3c(c2)OCCO3)CCCCN1C/C=C/c1ccccc1 (mixture of isomers)	< 49	< 49	> 90	< 49
O=C1C(C(O)c2ccc3c(c2)OCCO3)Cc2ccccc2N1C/C=C/c1ccccc1 (mixture of isomers)	< 49	< 49	< 49	< 49
COc1c(C(O)C2CCCN(Cc3ccccc3)C2=O)ccc2c1OCCO2 (mixture of isomers)	< 49	< 49	> 90	< 49
O=C1C(C(O)c2ccc3c(c2)OCC(COCc2ccccc2)O3)CCCN1Cc1ccccc1 (mixture of isomers)	< 49	50	> 90	< 49
CCOCC1COc2cc(C(O)C3CCCN(Cc4ccccc4)C3=O)ccc2O1 (mixture of isomers)	< 49	50	50	< 49
COCC1COc2cc(C(O)C3CCCN(Cc4ccccc4)C3=O)ccc2O1 (mixture of isomers)	< 49	> 90	> 90	< 49
O=C1C(C(O)c2ccc3c(c2)OCC(c2ccccc2)O3)CCCN1Cc1ccccc1 (mixture of isomers)	< 49	< 49	< 49	< 49
O=C1C(C(O)c2ccnc3ccccc23)CCCN1Cc1ccccc1 (mixture of isomers)	< 49	< 49	> 90	< 49
O=C1C(C(O)c2cnc3ccccc3c2)CCCN1Cc1ccccc1 (mixture of isomers)	< 49	< 49	< 49	< 49
O=C1C(C(O)c2ccc3ccccc3n2)CCCN1Cc1ccccc1 (mixture of isomers)	< 49	< 49	> 90	< 49
O=C1C(C(O)c2ccncc2)CCCN1Cc1ccccc1 (mixture of isomers)	< 49	< 49	< 49	< 49
O=C1C(C(O)c2cccnc2)CCCN1Cc1ccccc1 (mixture of isomers)	< 49	< 49	50	< 49
O=C1C(C(O)c2ccccn2)CCCN1Cc1ccccc1 (mixture of isomers)	< 49	< 49	< 49	< 49
O=C1C(C(O)c2ccc3ccccc3c2)CCCN1Cc1ccccc1 (mixture of isomers)	< 49	< 49	< 49	< 49
O=C1C(C(O)c2ccccc2)CCCN1Cc1ccccc1 (mixture of isomers)	< 49	< 49	> 90	< 49
O=C1C(C(O)C/C=C/c2ccccc2)CCCN1Cc1ccccc1 (mixture of isomers)	< 49	50	50	< 49
Cc1ccccc1C(O)C1CCCN(Cc2ccccc2)C1=O (mixture of isomers)	< 49	< 49	> 90	< 49
Cc1cccc(C(O)C2CCCN(Cc3ccccc3)C2=O)c1 (mixture of isomers)	< 49	< 49	> 90	< 49
Cc1ccc(C(O)C2CCCN(Cc3ccccc3)C2=O)cc1 (mixture of isomers)	< 49	< 49	> 90	< 49
COc1ccccc1C(O)C1CCCN(Cc2ccccc2)C1=O (mixture of isomers)	< 49	< 49	50	< 49

Structure (SMILES)	inhibition at 0.001 µM (Echinochloa esculenta [1]) [%]	inhibition at 0.1 µM (Echinochloa esculenta [2]) [%]	inhibition at 1 µM (Echinochloa esculenta [3]) [%]	inhibition at 0.01 µM (Echinochloa esculenta [4]) [%]
COc1cccc(C(O)C2CCCN(Cc3ccccc3)C2=O)c1 (mixture of isomers)	< 49	< 49	< 49	< 49
COc1ccc(C(O)C2CCCN(Cc3ccccc3)C2=O)cc1 (mixture of isomers)	< 49	< 49	> 90	< 49
O=C1C(C(O)c2ccccc2Cl)CCCN1Cc1ccccc1 (mixture of isomers)	< 49	< 49	> 90	< 49
O=C1C(C(O)c2cccc(Cl)c2)CCCN1Cc1ccccc1 (mixture of isomers)	< 49	< 49	> 90	< 49
O=C1C(C(O)c2ccc(Cl)cc2)CCCN1Cc1ccccc1 (mixture of isomers)	< 49	50	> 90	< 49
O=C1C(C(O)c2ccccc2[N+](=O)[O-])CCCN1Cc1ccccc1 (mixture of isomers)	< 49	< 49	50	< 49
O=C1C(C(O)c2cccc([N+](=O)[O-])c2)CCCN1Cc1ccccc1 (mixture of isomers)	< 49	< 49	50	< 49
O=C1C(C(O)c2ccc([N+](=O)[O-])cc2)CCCN1Cc1ccccc1 (mixture of isomers)	< 49	< 49	50	< 49
O=C1C(C(O)c2ccccc2C(F)(F)F)CCCN1Cc1ccccc1 (mixture of isomers)	< 49	< 49	50	< 49
O=C1C(C(O)c2ccc(C(F)(F)F)cc2)CCCN1Cc1ccccc1 (mixture of isomers)	< 49	< 49	50	< 49
O=C1C(C(O)c2ccc3c(c2)OCO3)CCCN1Cc1ccccc1 (mixture of isomers)	< 49	< 49	< 49	< 49
O=C1C(C(O)c2cccc(O)c2)CCCN1Cc1ccccc1 (mixture of isomers)	< 49	< 49	50	< 49
O=C1C(C(O)c2ccc(O)cc2)CCCN1Cc1ccccc1 (mixture of isomers)	< 49	< 49	50	< 49
O=C1C(C(O)c2ccc(O)c(O)c2)CCCN1Cc1ccccc1 (mixture of isomers)	< 49	< 49	50	< 49
COc1ccc(C(O)C2CCCN(Cc3ccccc3)C2=O)c(OC)c1 (mixture of isomers)	< 49	< 49	< 49	< 49
COc1ccc(C(O)C2CCCN(Cc3ccccc3)C2=O)cc1OC (mixture of isomers)	< 49	50	> 90	< 49
O=C1C(C(O)c2cccc(Oc3ccccc3)c2)CCCN1Cc1ccccc1 (mixture of isomers)	< 49	< 49	50	< 49
O=C1C(C(O)c2ccc(Oc3ccccc3)cc2)CCCN1Cc1ccccc1 (mixture of isomers)	< 49	< 49	< 49	< 49
O=C1C(C(O)c2ccc(Cl)cc2Cl)CCCN1Cc1ccccc1 (mixture of isomers)	< 49	< 49	50	< 49
O=C1C(C(O)c2ccc(Cl)c(Cl)c2)CCCN1Cc1ccccc1 (mixture of isomers)	< 49	< 49	50	< 49
O=C1C(C(O)c2cccc3ccccc23)CCCN1Cc1ccccc1 (mixture of isomers)	< 49	< 49	< 49	< 49
COc1cc2c(cc1C(O)C1CCCN(Cc3ccccc3)C1=O)OCCO2 (mixture of isomers)	< 49	50	50	< 49
COc1cc(C(O)C2CCCN(Cc3ccccc3)C2=O)cc2c1OCCO2 (mixture of isomers)	< 49	< 49	50	< 49
